Active and inactive are the calls of the source.
What was measured:
Troponin, cardiac muscle = Troponin, cardiac muscle (Homo sapiens, UniProt P19429+P45379+P63316); assay: compounds desensitizing RTF to calcium – biochemical, fluorescence, cardiac regulated thin filaments, triplicate IC50, dose response (AID 504742); type: protein-complex assay
INS1 = assay: INS-1E survival protection against cytokine death – cell-based, luminescence, retest, dose response (AID 449756); type: functional; settings: Rattus norvegicus;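 further: cell death triggered by IL-1 beta plus TNF-alpha plus IFN-gamma mixture; protective hits raise ATP signal compared with cytokine alone wells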
[1] = target: Alkaline phosphatase, placental type (Homo sapiens, UniProt P05187); assay: human placental alkaline phosphatase inhibition – biochemical, luminescence, confirmation (AID 1512); type: functional
[2] = target: T1, Alkaline phosphatase, tissue-nonspecific isozyme (Homo sapiens, UniProt P05186); assay: potency against alkaline phosphatase TNAP – biochemical, luminescent, dose response, SAR follow-up (AID 1056)
T1 sequence (P05186 whole entry): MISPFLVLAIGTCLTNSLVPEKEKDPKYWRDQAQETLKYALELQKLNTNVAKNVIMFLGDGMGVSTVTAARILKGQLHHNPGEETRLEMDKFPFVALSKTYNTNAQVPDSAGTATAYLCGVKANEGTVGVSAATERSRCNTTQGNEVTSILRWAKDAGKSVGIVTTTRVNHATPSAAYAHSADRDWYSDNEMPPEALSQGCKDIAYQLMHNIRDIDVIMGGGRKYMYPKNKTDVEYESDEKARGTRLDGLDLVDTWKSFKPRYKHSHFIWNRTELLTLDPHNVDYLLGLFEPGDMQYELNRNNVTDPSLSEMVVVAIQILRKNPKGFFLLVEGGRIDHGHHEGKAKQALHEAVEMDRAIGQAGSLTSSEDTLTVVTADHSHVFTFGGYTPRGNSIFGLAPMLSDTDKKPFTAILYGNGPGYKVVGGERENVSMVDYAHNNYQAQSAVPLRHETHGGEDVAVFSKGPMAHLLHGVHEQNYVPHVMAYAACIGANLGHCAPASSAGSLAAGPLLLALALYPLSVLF

[3] = target: Glyceraldehyde-3-phosphate dehydrogenase (Homo sapiens, UniProt P04406)
[4] = target: T2, Replicative DNA helicase DnaB (Mycobacterium tuberculosis, UniProt P9WMR3); assay: DnaB intein splicing inhibitors, dose response, biochemical, cell-free fluorescence (AID 449749); type: functional
T2 sequence (P9WMR3 whole entry): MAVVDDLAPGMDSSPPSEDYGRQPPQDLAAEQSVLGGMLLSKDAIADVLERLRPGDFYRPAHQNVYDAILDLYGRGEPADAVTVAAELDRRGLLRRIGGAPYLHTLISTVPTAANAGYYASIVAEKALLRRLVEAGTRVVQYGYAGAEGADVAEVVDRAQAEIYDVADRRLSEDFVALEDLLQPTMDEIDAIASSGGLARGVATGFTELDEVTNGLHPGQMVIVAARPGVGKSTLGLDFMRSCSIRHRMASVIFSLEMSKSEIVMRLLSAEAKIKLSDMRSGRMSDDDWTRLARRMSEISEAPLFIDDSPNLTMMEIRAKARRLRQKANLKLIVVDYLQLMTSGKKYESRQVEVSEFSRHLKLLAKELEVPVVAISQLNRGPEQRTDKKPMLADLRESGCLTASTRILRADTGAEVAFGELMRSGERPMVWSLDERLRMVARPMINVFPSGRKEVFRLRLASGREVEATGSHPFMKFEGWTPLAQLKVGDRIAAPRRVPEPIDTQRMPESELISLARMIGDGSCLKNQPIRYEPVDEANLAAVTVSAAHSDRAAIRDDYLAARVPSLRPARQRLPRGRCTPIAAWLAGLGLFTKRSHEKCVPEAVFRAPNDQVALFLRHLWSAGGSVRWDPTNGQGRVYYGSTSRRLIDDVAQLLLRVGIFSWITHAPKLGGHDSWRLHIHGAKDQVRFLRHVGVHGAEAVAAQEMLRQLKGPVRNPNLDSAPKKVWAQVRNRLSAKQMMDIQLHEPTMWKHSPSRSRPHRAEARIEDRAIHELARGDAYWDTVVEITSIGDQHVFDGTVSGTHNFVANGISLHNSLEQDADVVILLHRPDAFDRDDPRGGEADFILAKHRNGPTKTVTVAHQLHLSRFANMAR

Protein RecA = target: T3, Protein RecA (Mycobacterium tuberculosis, UniProt P9WHJ3); assay: Fluorescence Cell-Free Homogeneous Dose Retest to Identify Inhibitors of RecA-Intein Splicing Activity. [Related pubchem assays (depositor defined):AID2097, AID2223, AID489010, AID492950]; type: functional
T3 sequence (P9WHJ3 whole entry): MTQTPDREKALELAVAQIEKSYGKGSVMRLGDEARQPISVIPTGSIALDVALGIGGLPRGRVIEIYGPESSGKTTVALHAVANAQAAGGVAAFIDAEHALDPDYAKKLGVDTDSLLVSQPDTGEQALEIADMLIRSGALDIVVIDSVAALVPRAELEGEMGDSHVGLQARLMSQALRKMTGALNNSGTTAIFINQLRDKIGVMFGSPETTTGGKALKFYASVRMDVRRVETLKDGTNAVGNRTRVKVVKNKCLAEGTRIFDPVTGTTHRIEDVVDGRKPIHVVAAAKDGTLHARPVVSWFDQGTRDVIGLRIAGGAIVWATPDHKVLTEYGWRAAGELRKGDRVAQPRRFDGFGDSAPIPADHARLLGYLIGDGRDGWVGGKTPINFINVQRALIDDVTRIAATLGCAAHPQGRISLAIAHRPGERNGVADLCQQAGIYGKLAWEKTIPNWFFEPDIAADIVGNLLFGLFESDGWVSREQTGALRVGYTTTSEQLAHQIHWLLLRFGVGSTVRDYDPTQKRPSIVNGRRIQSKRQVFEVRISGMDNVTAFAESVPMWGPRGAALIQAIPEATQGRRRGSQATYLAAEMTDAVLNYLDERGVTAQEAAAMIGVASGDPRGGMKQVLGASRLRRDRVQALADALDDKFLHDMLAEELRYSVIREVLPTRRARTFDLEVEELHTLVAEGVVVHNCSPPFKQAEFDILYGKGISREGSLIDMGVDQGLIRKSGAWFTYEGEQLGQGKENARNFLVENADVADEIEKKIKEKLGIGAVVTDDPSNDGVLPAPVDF

Coagulation factor XII = target: T4, Coagulation factor XII (Homo sapiens, UniProt P00748); assay: Factor XIIa Dose Response Confirmation from Single Well HTS. [Related pubchem assays (depositor defined):AID701]; type: functional
T4 sequence (P00748 whole entry): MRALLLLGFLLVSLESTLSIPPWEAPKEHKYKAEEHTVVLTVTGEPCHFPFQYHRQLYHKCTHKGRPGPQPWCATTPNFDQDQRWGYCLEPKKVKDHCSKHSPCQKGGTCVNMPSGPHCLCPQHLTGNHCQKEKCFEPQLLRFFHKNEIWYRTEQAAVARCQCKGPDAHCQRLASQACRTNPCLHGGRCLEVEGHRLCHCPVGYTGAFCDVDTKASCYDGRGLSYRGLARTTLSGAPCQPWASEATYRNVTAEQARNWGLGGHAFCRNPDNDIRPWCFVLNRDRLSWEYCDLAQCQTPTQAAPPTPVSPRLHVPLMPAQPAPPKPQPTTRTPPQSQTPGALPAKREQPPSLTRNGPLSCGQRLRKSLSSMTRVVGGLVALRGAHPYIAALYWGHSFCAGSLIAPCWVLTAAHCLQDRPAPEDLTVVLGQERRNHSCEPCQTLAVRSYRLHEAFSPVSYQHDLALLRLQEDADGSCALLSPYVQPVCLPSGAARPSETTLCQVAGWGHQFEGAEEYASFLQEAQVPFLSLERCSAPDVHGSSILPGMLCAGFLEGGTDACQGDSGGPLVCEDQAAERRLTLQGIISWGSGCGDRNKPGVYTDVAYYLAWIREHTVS

[5] = target: Sphingosine 1-phosphate receptor 4 (Homo sapiens, UniProt O95977); assay: Late-stage fluorescence dose response cell-based assay to identify agonists of the Sphingosine 1-Phosphate Receptor 4 (S1P4): purchased compounds EC50. [Related pubchem assays (depositor defined):AID1509, AID1523, AID1563, AID1686, AID1701, AID1801]; type: functional
[6] = target: T5, Dual specificity protein phosphatase 6 (Rattus norvegicus, UniProt Q64346); type: functional;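 further: confirmatory in vitro dose-response testing of MKP-3 inhibition; recombinant His-tagged MKP-3 made in E. coli BL21 with OMFP substrate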
T5 sequence (Q64346 whole entry): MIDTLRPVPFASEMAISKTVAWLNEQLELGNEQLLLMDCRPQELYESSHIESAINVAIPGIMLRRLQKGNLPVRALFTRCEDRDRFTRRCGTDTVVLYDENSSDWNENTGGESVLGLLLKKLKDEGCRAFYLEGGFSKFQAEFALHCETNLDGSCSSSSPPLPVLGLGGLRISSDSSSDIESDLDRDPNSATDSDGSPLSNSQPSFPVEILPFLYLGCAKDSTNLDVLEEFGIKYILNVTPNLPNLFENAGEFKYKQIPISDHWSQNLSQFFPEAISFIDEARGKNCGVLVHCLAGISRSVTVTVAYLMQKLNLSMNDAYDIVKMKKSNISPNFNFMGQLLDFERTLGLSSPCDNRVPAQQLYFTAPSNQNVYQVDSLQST

[7] = target: T6, Tyrosine-protein phosphatase non-receptor type 7 (Homo sapiens, UniProt P35236); assay: redox-active compounds inhibiting HePTP phosphatase – biochemical, fluorescence, mechanism study (AID 2068); type: functional
T6 sequence (P35236 whole entry): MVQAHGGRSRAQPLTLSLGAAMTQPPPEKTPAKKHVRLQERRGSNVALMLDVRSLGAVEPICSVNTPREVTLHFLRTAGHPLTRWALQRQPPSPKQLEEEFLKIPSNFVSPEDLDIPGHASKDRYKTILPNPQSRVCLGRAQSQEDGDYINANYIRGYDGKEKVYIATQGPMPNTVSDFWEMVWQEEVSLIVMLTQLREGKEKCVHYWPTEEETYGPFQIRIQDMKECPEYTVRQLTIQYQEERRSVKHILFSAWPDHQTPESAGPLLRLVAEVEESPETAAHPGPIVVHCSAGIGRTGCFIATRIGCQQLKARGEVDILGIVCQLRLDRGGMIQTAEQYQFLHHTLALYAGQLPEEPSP

[8] = target: T7, Dual specificity protein phosphatase 3 (Homo sapiens, UniProt P51452); assay: SAR VHR1 Fluorescent Assay for In Vitro dose response studies Set 2. [Related pubchem assays (depositor defined):AID1654, AID1661, AID1878]; type: functional
[9] = target: T7, Dual specificity protein phosphatase 3; assay: SAR VHR1 Fluorescent Assay for In Vitro dose response studies. [Related pubchem assays (depositor defined):AID1654, AID1661, AID1878, AID1992, AID2004, AID2070, AID2085]; type: functional
[10] = target: T7, Dual specificity protein phosphatase 3; assay: SAR VHR1 absorbance Assay for In Vitro dose response studies. [Related pubchem assays (depositor defined):AID1654, AID1661, AID1878, AID1992, AID2004]
[11] = target: ATP-dependent molecular chaperone HSP82 (Candida albicans (strain WO-1) (Yeast), UniProt C4YTQ8); assay: steroid-induced GRE reporter decrease in yeast – S. cerevisiae, luminescence, Hsp90 inhibitor project, dose response (AID 2400); type: functional, cell-based;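 further: beta-galactosidase luminescence from glucocorticoid response element reporter as proxy for Hsp90 function; inhibitor potency where signal loss means Hsp90 inhibition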
Saccharomyces cerevisiae = assay: S. cerevisiae Caspase-1/ASC signal blockers IC50, NALP1 inhibitor project selectivity test (AID 488863); type: functional, organism-based
[12] = target: NACHT, LRR and PYD domains-containing protein 1 (Homo sapiens, UniProt Q9C000); assay: NALP1 inhibitors in yeast, dose response, luminescent (AID 488860); type: functional
[13] = NIH-3T3 fibroblast cytotoxicity, dose response, cytotoxicity control, cell-based, fluorescence, Alamar Blue, secondary assay (AID 2327); type: functional;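 further: NIH-3T3 mouse fibroblasts cultured with fluconazole at 8 µg/mL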
[14] = target: T8, Serine/threonine-protein phosphatase (Candida dubliniensis (strain CD36 / CBS 7987 / NCPF 3949 / NRRLY-17841) (Yeast), UniProt B9W6M3); assay: blockers of CaCl2-induced CDRE-lacZ signaling – S. cerevisiae, luminescence, secondary, dose response (AID 2388); type: functional, cell-based;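 further: yeast reporter cells carrying a calcineurin-responsive lacZ construct stimulated with calcium chloride; luminescent beta-galactosidase reporter signal in whole cells rather than isolated phosphatase activity; potency for inhibition where a drop in reporter signal means calcineurin blockade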
T8 sequence (B9W6M3 whole entry): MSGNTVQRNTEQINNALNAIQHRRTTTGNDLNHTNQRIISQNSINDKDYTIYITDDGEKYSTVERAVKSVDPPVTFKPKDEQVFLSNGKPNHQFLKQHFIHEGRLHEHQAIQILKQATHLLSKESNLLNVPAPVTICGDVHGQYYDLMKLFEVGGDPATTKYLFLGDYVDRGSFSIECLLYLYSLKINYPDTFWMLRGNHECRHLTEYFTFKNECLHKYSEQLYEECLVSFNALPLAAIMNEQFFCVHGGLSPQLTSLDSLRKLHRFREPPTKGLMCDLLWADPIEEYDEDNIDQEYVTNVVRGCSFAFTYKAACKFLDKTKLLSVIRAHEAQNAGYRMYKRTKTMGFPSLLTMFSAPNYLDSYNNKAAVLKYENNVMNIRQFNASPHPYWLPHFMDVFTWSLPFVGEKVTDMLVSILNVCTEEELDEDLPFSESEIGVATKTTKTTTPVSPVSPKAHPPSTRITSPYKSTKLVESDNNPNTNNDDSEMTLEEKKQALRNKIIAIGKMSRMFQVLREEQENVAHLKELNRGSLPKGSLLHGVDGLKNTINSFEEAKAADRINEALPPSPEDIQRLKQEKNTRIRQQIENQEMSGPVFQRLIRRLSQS

[15] = fluconazole-exposed Candida albicans growth modulators – fluorescence, retest, confirmation (AID 2467); type: functional, cell-based

COc1cccc(/C=N/Nc2nc3ccccc3n3cnnc23)c1O
IC50 (Troponin, cardiac muscle): 7.6 µM (active) | AC50 (INS1): 1.84 µM (active)

COc1ccc(-c2cc(-c3ccc4ccccc4c3O)n[nH]2)cc1
IC50 [1]: > 100 µM (inactive) | IC50 [2]: > 100 µM (inactive) | IC50 [3]: > 100 µM (not active)

O=C(Oc1cccc(-n2cnnn2)c1)c1ccco1
AC50 [4]: 23.8 µM (active) | EC50 (Protein RecA): 15.1 µM (active) | IC50 (Coagulation factor XII): 12.4 µM (active)

Cc1ccc(OCC(=O)NC(C)c2ccc(Cl)cc2Cl)c([N+](=O)[O-])n1 (stereo not given)
EC50 [5]: > 50 µM (inactive)

NS(=O)(=O)c1cc(C(=O)NC2CCCc3ccccc32)ccc1Cl (stereo not given)
IC50 [6]: > 100 µM (inactive) | IC50 [7]: > 100 µM (inactive) | IC50 [8]: > 100 µM (inactive) | IC50 [9]: > 100 µM (inactive) | IC50 [10]: > 100 µM (inactive)

Cc1cc2ccccn2c1C(C[N+](=O)[O-])c1c(F)cccc1Cl (stereo not given)
EC50 [11]: 4.47 µM (active) | IC50 (Saccharomyces cerevisiae): 6.44 µM (active) | IC50 [12]: 7.92 µM (active) | EC50 [13]: > 160 µM (inactive) | EC50 [14]: 45.4 µM (active) | EC50 [15]: 0.421 µM (active)
